Each structure is given as a SMILES string.

The compound `O=C(Nc1cccc(C(F)(F)F)c1)Nc1ccc(-c2ccc(Cl)cc2)cc1-c1nnn[nH]1` [Compound 3-2, N-(3-Trifluoromethyl-phenyl)-N′-[4′-chloro-3-(1H-tetrazol-5-yl)-biphenyl-4-yl]-urea] gave a melting point of 253 to 254 °C.
To `O=C(Nc1ccc(Cl)c(C(F)(F)F)c1)Nc1ccc(-c2ccc(Cl)cc2)cc1-c1nnn[nH]1` [Compound 3-3, N-(4-Chloro-3-trifluoromethyl-phenyl)-N′-[4′-chloro-3-(1H-tetrazol-5-yl)-biphenyl-4-yl]-urea] belongs 242 to 243 °C; to `O=C(Nc1cc(Cl)cc(Cl)c1)Nc1ccc(-c2ccc(Cl)cc2)cc1-c1nnn[nH]1` [Compound 3-4, N-(3,5-Dichloro-phenyl)-N′-[4′-chloro-3-(1H-tetrazol-5-yl)-biphenyl-4-yl]-urea], 231 to 234 °C.
Compound `O=C(Nc1cc(F)cc(F)c1)Nc1ccc(-c2ccc(Cl)cc2)cc1-c1nnn[nH]1` [Compound 3-5, N-(3,5-Difluoro-phenyl)-N′-[4′-chloro-3-(1H-tetrazol-5-yl)-biphenyl-4-yl]-urea] yielded a melting point of 250 to 251 °C.
To `O=C(Nc1cc(Cl)cc(Cl)c1)Nc1ccc(-c2ccc(C(F)(F)F)cc2)cc1-c1nnn[nH]1` [Compound 3-6, N-(3,5-Dichloro-phenyl)-N′-[3-(1H-tetrazol-5-yl)-4′-trifluoromethyl-biphenyl-4-yl]-urea] belongs 226 to 230 °C; to `O=C(Nc1cc(F)cc(F)c1)Nc1ccc(-c2ccc(C(F)(F)F)cc2)cc1-c1nnn[nH]1` [Compound 3-7, N-(3,5-Difluoro-phenyl)-N′-[3-(1H-tetrazol-5-yl)-4′-trifluoromethyl-biphenyl-4-yl]-urea], 245 to 247 °C; to `O=C(Nc1cc(-c2ccc(F)cc2)cc(-c2nnn[nH]2)c1)Nc1cccc(C(F)(F)F)c1` [Compound 3-8, N-(3-Trifluoromethyl-phenyl)-N′-[4′-fluoro-3-(1H-tetrazol-5-yl)-biphenyl-5-yl]-urea], 256 to 258 °C.
The compound `O=C(Nc1ccc(Cl)c(C(F)(F)F)c1)Nc1ccc(-c2ccc(F)cc2)cc1-c1nnn[nH]1` [Compound 3-9, N-(4-Chloro-3-trifluoromethyl-phenyl)-N′-[4′-fluoro-3-(1H-tetrazol-5-yl)-biphenyl-4-yl]-urea] yielded a melting point of 247 to 249 °C.
To `O=C(Nc1cc(Cl)cc(Cl)c1)Nc1ccc(-c2ccc(F)cc2)cc1-c1nnn[nH]1` [Compound 3-10, N-(3,5-Dichloro-phenyl)-N′-[4′-fluoro-3-(1H-tetrazol-5-yl)-biphenyl-4-yl]-urea] belongs 241 to 243 °C.
To `O=C(Nc1cc(F)cc(F)c1)Nc1ccc(-c2ccc(F)cc2)c(-c2nnn[nH]2)c1` [Compound 3-11, N-(3,5-Difluoro-phenyl)-N′-[4′-fluoro-2-(1H-tetrazol-5-yl)-biphenyl-4-yl]-urea] belongs 255 to 256 °C; to `O=C(Nc1ccc(F)c(C(F)(F)F)c1)Nc1ccc(-c2ccc(C(F)(F)F)cc2)cc1-c1nnn[nH]1` [Compound 3-12, N-(4-Fluoro-3-trifluoromethyl-phenyl)-N′-[3-(1H-tetrazol-5-yl)-4′-trifluoromethyl-biphenyl-4-yl]-urea], 247 to 249 °C; to `O=C(Nc1cc(C(F)(F)F)cc(C(F)(F)F)c1)Nc1ccc(-c2ccc(C(F)(F)F)cc2)cc1-c1nnn[nH]1` [Compound 3-13, N-(3,5-Bis-trifluoromethyl-phenyl)-N′-[3-(1H-tetrazol-5-yl)-4′-trifluoromethyl-biphenyl-4-yl]-urea], 246 to 248 °C.
For `O=C(Nc1cc(C(F)(F)F)cc(C(F)(F)F)c1)Nc1ccc(-c2ccc(Cl)cc2)cc1-c1nnn[nH]1` [Compound 3-14, N-(3,5-Bis-trifluoromethyl-phenyl)-N′-[4′-chloro-3-(1H-tetrazol-5-yl)-biphenyl-4-yl]-urea], the melting point was 230 to 233 °C.

For orientation: melting point means the temperature, or range, at which the solid turns liquid.

These data come from US20070293553A1, “Diphenylurea Derivatives Useful As Potassium Channel Activators” (priority 2004, published 2007).
